Measured values: patent publication US10065990B2, “Cyclic peptide compound, and preparation method, pharmaceutical composition and use thereof” (HANGZHOU GUANYU BIO-MEDICAL CO., LTD, priority 2013, dated 2018)
Like-named read-outs stand apart in the source and are kept apart here.

Legend:
[1] = target: T1, HDAC7 (Homo sapiens, UniProt Q8WUI4); assay: HDAC biochemical activity measurement (fluorescent substrate deacetylation);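 also: fluorogenic deacetylation assay using acetyl-lysine substrate at 20 µM, enzyme and compound incubated 30 min at 37 °C, then developer added, fluorescence read at 360/460 nm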; details: HDAC7; 37° C. 30 minutes
T1 sequence (Q8WUI4 1-952): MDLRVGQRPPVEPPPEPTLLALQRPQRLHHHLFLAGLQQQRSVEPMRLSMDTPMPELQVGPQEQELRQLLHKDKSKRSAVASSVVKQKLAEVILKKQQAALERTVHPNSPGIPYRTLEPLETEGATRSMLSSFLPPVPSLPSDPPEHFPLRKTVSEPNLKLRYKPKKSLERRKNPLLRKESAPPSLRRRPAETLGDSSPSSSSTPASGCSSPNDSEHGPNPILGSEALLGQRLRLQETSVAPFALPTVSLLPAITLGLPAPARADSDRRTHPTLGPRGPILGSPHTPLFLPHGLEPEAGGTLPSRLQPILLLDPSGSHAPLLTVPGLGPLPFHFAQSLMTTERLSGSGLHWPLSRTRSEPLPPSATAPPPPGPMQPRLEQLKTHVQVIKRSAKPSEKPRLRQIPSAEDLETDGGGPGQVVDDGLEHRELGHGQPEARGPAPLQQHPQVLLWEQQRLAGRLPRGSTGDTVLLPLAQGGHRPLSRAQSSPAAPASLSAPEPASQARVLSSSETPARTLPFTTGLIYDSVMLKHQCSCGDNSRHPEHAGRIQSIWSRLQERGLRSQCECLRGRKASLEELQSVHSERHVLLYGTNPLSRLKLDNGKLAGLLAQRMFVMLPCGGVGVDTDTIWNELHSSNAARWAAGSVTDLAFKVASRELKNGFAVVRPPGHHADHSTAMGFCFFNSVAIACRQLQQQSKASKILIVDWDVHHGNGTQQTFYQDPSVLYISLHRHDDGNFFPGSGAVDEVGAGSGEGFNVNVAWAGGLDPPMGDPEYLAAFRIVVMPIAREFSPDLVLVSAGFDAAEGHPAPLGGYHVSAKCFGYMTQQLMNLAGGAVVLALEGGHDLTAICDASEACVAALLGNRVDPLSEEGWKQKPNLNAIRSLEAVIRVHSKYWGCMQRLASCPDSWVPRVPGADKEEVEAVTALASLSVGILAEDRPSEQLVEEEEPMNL

[2] = system: MDA-MB-231 (breast cancer cells); assay: MTT cancer cell growth inhibition; format: cell-based
Source text: (§1) MTT assay principle is yellow MTT can penetrate membrane into the cell, succinic dehydrogenase of the mitochondria in living cells can make exogenous MTT reduction of insoluble in water of blue-violet acicular formazan for crystallization and deposition in the cell, crystallization can be dissolved dimethyl sulfoxide (DMSO) solution, detected its absorbance at 490 nm/570 nm wavelength by enzyme-linked immunosorbent assay, which can reflect the number of cells.
(§2) Using DMEM+10% FBS culture medium or using 1640+10% FBS culture, respectively.
(§3) a) Cells were seeded in 96-well plates with the inoculation of 1500/well, 190 μl/hole, 37° C., 5% of CO2 incubator overnight;
(§4) b) The next day each well was added 10 μl of different drugs. The final concentration of drug was 10^−5˜10^−10M, three parallel holes; 37° C., 5% CO2 culture incubator for 72 hours incubation;
(§5) c) Per well was added 20 μl 5 mg/ml of MTT, 37° C., 5% CO2 culture incubator for 4 hours incubation;
(§6) d) The supernatant was discarded. Each well was added 100 μl of DMSO and oscillation;
(§7) e) 570 nm readings. Calculate cell viability. GI50 calculation based on the results.

[3] = system: MCF-7 (human breast cancer cells); assay: MTT cancer cell growth inhibition; format: cell-based; details: 72 hours incubation, read-out: GI50 MCF
Source text: as §1, §2, §3, §4, §5, §6, §7

[4] = system: HT1080 (human fibrosarcoma cells); assay: MTT cancer cell growth inhibition; format: cell-based; details: MTT, 72 hours incubation, read-out: GI50 HT1
Source text: as §1, §2, §3, §4, §5, §6, §7

[5] = system: SGC-7901 (human gastric cancer cells); assay: MTT cancer cell growth inhibition; format: cell-based; details: MTT, 72 hours incubation, SGC-7901 cells, read-out: GI50 SGC-7901
Source text: as §1, §2, §3, §4, §5, §6, §7

[6] = system: U937 (human leukemia cells); assay: MTT cancer cell growth inhibition; format: cell-based; details: MTT, 72 hours incubation, read-out: GI50 U93
Source text: as §1, §2, §3, §4, §5, §6, §7

[7] = system: Huh-7 (human hepatoma cells); assay: MTT cancer cell growth inhibition; format: cell-based; details: MTT, 72 hours incubation, Huh-7 cells, read-out: GI50 Huh-7
Source text: as §1, §2, §3, §4, §5, §6, §7

[8] = system: PANC-1 (Pac-1, human pancreatic cancer cells); assay: MTT cancer cell growth inhibition; format: cell-based; details: MTT, 72 hours incubation, read-out: GI50 PAN
Source text: as §1, §2, §3, §4, §5, §6, §7

[9] = system: HCC827 (human non-small cell lung cancer cells); assay: MTT cancer cell growth inhibition; format: cell-based; details: MTT, 72 hours incubation, HCC827 cells, read-out: GI50 HCC827
Source text: as §1, §2, §3, §4, §5, §6, §7

[10] = system: Bel-7402 (human hepatoma cells); assay: MTT cancer cell growth inhibition; format: cell-based; details: MTT, 72 hours incubation, Bel-7402 cells, read-out: GI50 Bel-7402
Source text: as §1, §2, §3, §4, §5, §6, §7

[11] = system: DU145 (human prostate cancer cells); assay: MTT cancer cell growth inhibition; format: cell-based; details: MTT, 72 hours incubation, read-out: GI50 Du1
Source text: as §1, §2, §3, §4, §5, §6, §7

[12] = system: H1975 (non-small cell lung adenocarcinoma); assay: MTT cancer cell growth inhibition; format: cell-based; details: MTT, 72 hours incubation, H1975 cells, read-out: GI50 H1975
Source text: as §1, §2, §3, §4, §5, §6, §7

[13] = system: MOLT-4 (human acute lymphoblastic leukemia cells); assay: MTT cancer cell growth inhibition; format: cell-based; details: MTT, 72 hours incubation, read-out: GI50 Mol
Source text: as §1, §2, §3, §4, §5, §6, §7

[14] = system: K562 (human leukemia cells); assay: MTT cancer cell growth inhibition; format: cell-based; details: MTT, 72 hours incubation, K562 cells, read-out: GI50 K562
Source text: as §1, §2, §3, §4, §5, §6, §7

[15] = system: A549 (human lung cancer cells); assay: MTT cancer cell growth inhibition; format: cell-based; details: MTT, 72 hours incubation, read-out: GI50 A54
Source text: as §1, §2, §3, §4, §5, §6, §7

[16] = system: KBM5-T315I (human chronic myelogenous leukemia); assay: MTT cancer cell growth inhibition; format: cell-based; details: MTT, 72 hours incubation, KBM5-T315I cells, read-out: GI50 KBM5-T315I
Source text: as §1, §2, §3, §4, §5, §6, §7

[17] = system: BGC-823 (human gastric cancer cells); assay: MTT cancer cell growth inhibition; format: cell-based; details: MTT, 72 hours incubation, read-out: GI50 BG
Source text: as §1, §2, §3, §4, §5, §6, §7

[18] = system: Hela (human cervical cancer cells); assay: MTT cancer cell growth inhibition; format: cell-based; details: MTT, 72 hours incubation, read-out: GI50 Hela
Source text: as §1, §2, §3, §4, §5, §6, §7

[19] = system: KBM-5 (human chronic myelogenous leukemia); assay: MTT cancer cell growth inhibition; format: cell-based; details: MTT, 72 hours incubation, KBM-5 cells, read-out: GI50 KBM-5
Source text: as §1, §2, §3, §4, §5, §6, §7

[20] = system: lncap (prostate cancer cells); assay: MTT cancer cell growth inhibition; format: cell-based; details: MTT, 72 hours incubation, read-out: GI50 lnca
Source text: as §1, §2, §3, §4, §5, §6, §7

[21] = system: N-87 (human gastric cancer cells); assay: MTT cancer cell growth inhibition; format: cell-based; details: MTT, 72 hours incubation, N-87 cells, read-out: GI50 N-87
Source text: as §1, §2, §3, §4, §5, §6, §7

[22] = Homo sapiens, MDA-MB-231, 72 h, read-out: GI50 MDA-MB-231, MTT, 72 hours incubation, MDA-MB-231 cells

IC50 HDAC7 [1]	GI50 [2, 22]	GI50 ([3]; Homo sapiens, MCF7, 72 h)	GI50 ([4]; Homo sapiens, HT-1080, 72 h)	GI50 ([5]; Homo sapiens, SGC-7901, 72 h)	GI50 ([6]; Homo sapiens, U-937, 72 h)	GI50 ([7]; Homo sapiens, Huh-7, 72 h)	GI50 ([9]; Homo sapiens, HCC827, 72 h)	GI50 ([10]; Homo sapiens, Bel-7402, 72 h)	GI50 ([11]; Homo sapiens, DU-145, 72 h)	GI50 ([12]; Homo sapiens, NCI-H1975, 72 h)	GI50 ([13]; Homo sapiens, MOLT-4, 72 h)	GI50 ([14]; Homo sapiens, K562, 72 h)	GI50 ([15]; Homo sapiens, A549, 72 h)	GI50 ([16]; Homo sapiens, 72 h)	GI50 [17]	GI50 ([18]; Homo sapiens, HeLa, 72 h)	GI50 ([19]; Homo sapiens, KBM5, 72 h)	GI50 ([20]; Homo sapiens, LNCaP, 72 h)	GI50 [3]	Structure (SMILES)	also measured
no activity	22 nM	30 nM	80 nM	42 nM	30 nM	22 nM	83 nM	83 nM	20 nM	35 nM	20 nM	26 nM	40 nM	38 nM	20 nM	70 nM	76 nM	20 nM		C/C=C1\NC(=O)c2ccc(F)c(n2)CNC(=O)C[C@@H](/C=C/CCSC(C)=O)OC(=O)[C@H](C(C)C)NC1=O [Compound 95]	GI50 ([8]; Homo sapiens, PANC-1, 72 h): 80 nM
no activity															60 nM				60 nM	C/C=C1\NC(=O)c2ccc(F)c(n2)CNC(=O)C[C@@H](/C=C/CCSC(C)=O)OC(=O)[C@H](C(C)C)NC1=O (single isomer, unassigned) [Example 50]	GI50 [4]: 80 nM; GI50 [6]: 30 nM; GI50 [8]: 80 nM; GI50 [11]: 40 nM; GI50 [13]: 20 nM; GI50 [15]: 30 nM; GI50 [18]: 70 nM; GI50 [20]: 20 nM

More lines, now with the values behind:

Structure (SMILES)	IC50 HDAC7 [1]	GI50 [2, 22]	GI50 ([3]; Homo sapiens, MCF7, 72 h)	GI50 ([4]; Homo sapiens, HT-1080, 72 h)	GI50 ([5]; Homo sapiens, SGC-7901, 72 h)	GI50 ([6]; Homo sapiens, U-937, 72 h)	GI50 ([7]; Homo sapiens, Huh-7, 72 h)	GI50 ([9]; Homo sapiens, HCC827, 72 h)	GI50 ([10]; Homo sapiens, Bel-7402, 72 h)	GI50 ([11]; Homo sapiens, DU-145, 72 h)	GI50 ([12]; Homo sapiens, NCI-H1975, 72 h)	GI50 ([13]; Homo sapiens, MOLT-4, 72 h)	GI50 ([14]; Homo sapiens, K562, 72 h)	GI50 ([15]; Homo sapiens, A549, 72 h)	GI50 ([16]; Homo sapiens, 72 h)	GI50 [17]	GI50 ([18]; Homo sapiens, HeLa, 72 h)	GI50 ([19]; Homo sapiens, KBM5, 72 h)	GI50 ([20]; Homo sapiens, LNCaP, 72 h)	GI50 [3]	also measured
C/C=C1\NC(=O)c2nc(ccc2F)CNC(=O)C[C@@H](/C=C/CCSC(C)=O)OC(=O)[C@H](CC)NC1=O [Example 57]																					GI50 ([2]; read-out: GI50 MDA-MB-231, MTT, 72 hours incubation, MDA-MB-231 cells): 28 nM; GI50 [5]: 92 nM; GI50 [7]: 28 nM; GI50 [9]: 73 nM; GI50 [10]: 73 nM; GI50 [12]: 55 nM; GI50 [14]: 35 nM; GI50 [16]: 54 nM; GI50 [21]: 53 nM; GI50 [19]: 74 nM
C/C=C1\NC(=O)c2cc(F)cc(n2)CNC(=O)C[C@@H](/C=C/CCS)OC(=O)[C@H](CC)NC1=O [Compound 110]	no activity	13 nM	30 nM	70 nM	57 nM	60 nM	48 nM	62 nM	62 nM	50 nM	59 nM	30 nM	17 nM	60 nM	29 nM		60 nM	41 nM	30 nM		GI50 ([17]; Homo sapiens, BGC-823, 72 h): 30 nM; GI50 ([21]; Homo sapiens, 72 h): 35 nM
C/C=C1\NC(=O)c2nc(ccc2F)CNC(=O)C[C@@H](/C=C/CCSC(C)=O)OC(=O)[C@H](C(C)C)NC1=O [Compound 93]	no activity	38 nM			68 nM		38 nM	34 nM	34 nM		27 nM		37 nM		34 nM	20 nM		53 nM		30 nM	GI50 [4]: 30 nM; GI50 [6]: 20 nM; GI50 [8]: 30 nM; GI50 [11]: 30 nM; GI50 [13]: 30 nM; GI50 [15]: 60 nM; GI50 [18]: 50 nM; GI50 [20]: 30 nM
